In brackets after ≈: the same amount, converted by molar mass. Activity calls are given as the source filed them. The rule behind the calls is not given here.

One assay has as its system Pseudomonas aeruginosa. Nature of the assay: Antimicrobial activity against Pseudomonas aeruginosa at 100 ug. The assay is classed as functional, organism-based.
The next assay relates to Escherichia coli. Nature of the assay: Antimicrobial activity against Escherichia coli at 100 ug. The assay is classed as functional, organism-based.
Assay [1] is described as follows: Antitumor activity against human 9KB cells. The assay is classed as functional, cell-based.

With `C=C1CC[C@@H]([C@@]2(C)CC[C@H](C(C)(C)OC(C)=O)O2)[C@@H](O)[C@H]2C(C)=CC[C@@H]12` [DICTYOL H], the outcome with Pseudomonas aeruginosa and in the assay with Escherichia coli was inactive. In assay [1], this compound registered an IC50 of 22 µg/mL (≈ 60.7 µM).
